{"source": "ChEMBL document CHEMBL4507280", "about": "(2021)", "key": {"[1]": {"target": "Beta-1 adrenergic receptor (Homo sapiens) (UniProt P08588)", "test": "BETA1/HU Eurofins-Panlabs selectivity data (BI)", "conditions": "Compound concentration 10.0 uM; call rule not given here"}, "[2]": {"target": "Muscarinic acetylcholine receptor M1 (Homo sapiens) (UniProt P11229)", "conditions": "Compound concentration 10.0 uM"}, "[3]": {"target": "Histamine H1 receptor (Homo sapiens) (UniProt P35367)", "sequence (P35367 whole entry)": "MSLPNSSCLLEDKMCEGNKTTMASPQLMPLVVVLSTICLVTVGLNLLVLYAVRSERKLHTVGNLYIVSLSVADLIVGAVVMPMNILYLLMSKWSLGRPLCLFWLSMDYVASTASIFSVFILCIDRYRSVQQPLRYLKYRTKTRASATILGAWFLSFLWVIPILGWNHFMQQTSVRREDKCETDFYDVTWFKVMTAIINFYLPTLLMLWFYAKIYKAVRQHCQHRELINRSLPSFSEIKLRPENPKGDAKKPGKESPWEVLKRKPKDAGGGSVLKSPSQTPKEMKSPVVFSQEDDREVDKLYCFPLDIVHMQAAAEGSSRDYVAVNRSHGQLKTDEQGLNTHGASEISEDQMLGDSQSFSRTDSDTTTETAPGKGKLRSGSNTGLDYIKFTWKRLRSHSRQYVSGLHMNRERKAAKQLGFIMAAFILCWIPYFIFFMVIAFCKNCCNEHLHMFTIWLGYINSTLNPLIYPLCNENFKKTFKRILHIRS", "test": "H1/H Eurofins-Panlabs selectivity data (BI)", "conditions": "Compound concentration 10.0 uM"}, "[4]": {"target": "D(1A) dopamine receptor (Homo sapiens) (UniProt P21728)", "test": "D1/HU Eurofins-Panlabs selectivity data (BI)", "conditions": "Compound concentration 10.0 uM"}, "[5]": {"target": "D(2) dopamine receptor (Homo sapiens) (UniProt P14416)", "sequence (P14416 whole entry)": "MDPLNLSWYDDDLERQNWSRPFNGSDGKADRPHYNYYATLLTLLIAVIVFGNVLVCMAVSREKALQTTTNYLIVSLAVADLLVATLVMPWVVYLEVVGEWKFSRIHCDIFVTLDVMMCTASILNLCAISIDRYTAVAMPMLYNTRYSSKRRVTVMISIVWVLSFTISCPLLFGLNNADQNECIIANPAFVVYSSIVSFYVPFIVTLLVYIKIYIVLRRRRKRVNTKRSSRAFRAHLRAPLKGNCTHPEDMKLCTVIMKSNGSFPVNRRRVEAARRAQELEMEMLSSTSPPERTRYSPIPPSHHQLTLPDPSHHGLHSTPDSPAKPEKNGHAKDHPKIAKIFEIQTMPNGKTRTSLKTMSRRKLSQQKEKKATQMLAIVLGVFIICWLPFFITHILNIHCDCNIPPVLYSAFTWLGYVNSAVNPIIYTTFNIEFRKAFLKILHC", "test": "D2S/HU Eurofins-Panlabs selectivity data (BI)", "conditions": "Compound concentration 10.0 uM"}, "[6]": {"target": "Adenosine receptor A2a (Homo sapiens) (UniProt P29274)", "sequence (P29274 whole entry)": "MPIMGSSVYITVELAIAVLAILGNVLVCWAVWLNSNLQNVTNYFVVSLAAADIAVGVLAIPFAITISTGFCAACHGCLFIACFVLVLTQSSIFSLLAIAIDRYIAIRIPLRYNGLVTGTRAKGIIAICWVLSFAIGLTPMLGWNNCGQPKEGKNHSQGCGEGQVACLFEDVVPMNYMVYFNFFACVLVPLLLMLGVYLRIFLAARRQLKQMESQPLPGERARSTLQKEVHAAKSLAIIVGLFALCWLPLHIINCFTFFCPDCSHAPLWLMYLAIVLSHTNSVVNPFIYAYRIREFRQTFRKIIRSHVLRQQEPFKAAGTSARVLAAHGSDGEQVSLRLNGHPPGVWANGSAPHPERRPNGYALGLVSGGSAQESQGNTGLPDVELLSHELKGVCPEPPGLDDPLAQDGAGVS", "test": "A2A/HU Eurofins-Panlabs selectivity data (BI)", "conditions": "Compound concentration 10.0 uM"}, "[7]": {"target": "ATP-sensitive inward rectifier potassium channel 1 isoform X1 (Mesocricetus auratus) (UniProt A0A1U8CU73)", "sequence (A0A1U8CU73 as listed by the source)": "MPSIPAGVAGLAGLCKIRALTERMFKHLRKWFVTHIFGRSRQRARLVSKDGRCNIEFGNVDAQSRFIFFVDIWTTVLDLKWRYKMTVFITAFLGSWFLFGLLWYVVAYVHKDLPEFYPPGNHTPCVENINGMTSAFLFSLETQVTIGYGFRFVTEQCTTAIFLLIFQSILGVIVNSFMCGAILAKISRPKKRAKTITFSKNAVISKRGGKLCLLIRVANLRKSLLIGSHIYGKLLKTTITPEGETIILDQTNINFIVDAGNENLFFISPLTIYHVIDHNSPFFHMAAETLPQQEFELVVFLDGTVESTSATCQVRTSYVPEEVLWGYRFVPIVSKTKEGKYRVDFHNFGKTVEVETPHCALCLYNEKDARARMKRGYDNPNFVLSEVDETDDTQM", "test": "K+/KATP/HA Eurofins-Panlabs selectivity data (BI)", "conditions": "Compound concentration 10.0 uM"}, "[8]": {"target": "Histamine H2 receptor (Homo sapiens) (UniProt P25021)", "sequence (P25021 whole entry)": "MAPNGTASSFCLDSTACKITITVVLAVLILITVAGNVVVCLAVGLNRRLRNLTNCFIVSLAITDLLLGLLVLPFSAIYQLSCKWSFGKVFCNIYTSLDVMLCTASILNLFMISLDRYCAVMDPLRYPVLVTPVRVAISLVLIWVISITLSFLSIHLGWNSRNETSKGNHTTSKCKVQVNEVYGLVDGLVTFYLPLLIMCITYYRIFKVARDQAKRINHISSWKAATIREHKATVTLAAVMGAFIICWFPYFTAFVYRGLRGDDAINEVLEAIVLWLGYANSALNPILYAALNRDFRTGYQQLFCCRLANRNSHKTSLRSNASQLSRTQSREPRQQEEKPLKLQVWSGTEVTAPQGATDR", "conditions": "Compound concentration 10.0 uM"}, "[9]": {"target": "Protein kinase C alpha type (Mus musculus) (UniProt P20444)", "test": "PHORBOLE/M Eurofins-Panlabs selectivity data (BI)", "conditions": "Compound concentration 10.0 uM"}, "[10]": {"target": "Muscarinic acetylcholine receptor M3 (Homo sapiens) (UniProt P20309)", "test": "M3/HU Eurofins-Panlabs selectivity data (BI)", "conditions": "Compound concentration 10.0 uM"}, "[11]": {"target": "Sigma intracellular receptor 2 (Homo sapiens, UniProt Q5BJF2)", "sequence (Q5BJF2 whole entry)": "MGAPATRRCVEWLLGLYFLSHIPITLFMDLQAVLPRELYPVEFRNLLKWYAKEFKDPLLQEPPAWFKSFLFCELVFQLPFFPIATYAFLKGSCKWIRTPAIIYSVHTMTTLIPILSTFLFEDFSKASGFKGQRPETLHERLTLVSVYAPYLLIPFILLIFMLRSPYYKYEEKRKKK", "test": "SIGMA2/R Eurofins-Panlabs selectivity data (BI)", "conditions": "Rattus norvegicus; Compound concentration 10.0 uM"}, "[12]": {"target": "hERG (KCNH2) potassium channel (Homo sapiens, UniProt Q12809)", "sequence (Q12809 whole entry)": "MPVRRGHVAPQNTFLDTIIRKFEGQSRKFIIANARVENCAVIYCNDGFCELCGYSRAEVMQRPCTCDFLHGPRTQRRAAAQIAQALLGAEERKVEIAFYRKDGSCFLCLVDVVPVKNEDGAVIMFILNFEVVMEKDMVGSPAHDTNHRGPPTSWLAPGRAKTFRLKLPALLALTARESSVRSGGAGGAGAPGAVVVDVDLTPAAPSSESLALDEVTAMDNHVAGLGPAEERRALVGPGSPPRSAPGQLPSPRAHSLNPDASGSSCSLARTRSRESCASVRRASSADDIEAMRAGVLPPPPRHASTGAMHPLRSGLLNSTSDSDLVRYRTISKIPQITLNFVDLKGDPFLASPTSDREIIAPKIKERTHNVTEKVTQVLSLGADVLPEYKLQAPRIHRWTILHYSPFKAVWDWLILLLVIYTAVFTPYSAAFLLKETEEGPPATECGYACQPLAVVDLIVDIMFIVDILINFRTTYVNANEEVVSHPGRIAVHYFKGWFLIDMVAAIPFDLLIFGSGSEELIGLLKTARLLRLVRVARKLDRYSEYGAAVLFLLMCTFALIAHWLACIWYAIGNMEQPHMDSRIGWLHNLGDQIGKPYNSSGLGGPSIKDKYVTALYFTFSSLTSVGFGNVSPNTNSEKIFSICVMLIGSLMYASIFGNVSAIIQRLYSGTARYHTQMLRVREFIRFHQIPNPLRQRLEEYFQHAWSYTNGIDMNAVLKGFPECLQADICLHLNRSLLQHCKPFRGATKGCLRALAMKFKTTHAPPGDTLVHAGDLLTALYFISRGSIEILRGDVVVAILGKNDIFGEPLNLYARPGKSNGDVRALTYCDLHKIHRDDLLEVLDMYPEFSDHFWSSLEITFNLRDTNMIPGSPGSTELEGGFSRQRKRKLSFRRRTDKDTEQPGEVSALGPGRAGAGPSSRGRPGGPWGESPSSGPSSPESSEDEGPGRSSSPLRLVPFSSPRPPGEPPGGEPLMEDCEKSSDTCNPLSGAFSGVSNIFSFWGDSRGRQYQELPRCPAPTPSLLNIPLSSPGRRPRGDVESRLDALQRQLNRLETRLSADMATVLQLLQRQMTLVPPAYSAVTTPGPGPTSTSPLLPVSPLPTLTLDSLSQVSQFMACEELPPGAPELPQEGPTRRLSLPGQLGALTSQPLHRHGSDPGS", "test": "K+/HERG Eurofins-Panlabs selectivity data (BI)", "conditions": "compound concentration 10 uM, read-out: % Ctrl"}, "[13]": {"target": "T1, Alpha-1B adrenergic receptor (Homo sapiens) (UniProt P35368)", "T1 sequence (whole entry)": "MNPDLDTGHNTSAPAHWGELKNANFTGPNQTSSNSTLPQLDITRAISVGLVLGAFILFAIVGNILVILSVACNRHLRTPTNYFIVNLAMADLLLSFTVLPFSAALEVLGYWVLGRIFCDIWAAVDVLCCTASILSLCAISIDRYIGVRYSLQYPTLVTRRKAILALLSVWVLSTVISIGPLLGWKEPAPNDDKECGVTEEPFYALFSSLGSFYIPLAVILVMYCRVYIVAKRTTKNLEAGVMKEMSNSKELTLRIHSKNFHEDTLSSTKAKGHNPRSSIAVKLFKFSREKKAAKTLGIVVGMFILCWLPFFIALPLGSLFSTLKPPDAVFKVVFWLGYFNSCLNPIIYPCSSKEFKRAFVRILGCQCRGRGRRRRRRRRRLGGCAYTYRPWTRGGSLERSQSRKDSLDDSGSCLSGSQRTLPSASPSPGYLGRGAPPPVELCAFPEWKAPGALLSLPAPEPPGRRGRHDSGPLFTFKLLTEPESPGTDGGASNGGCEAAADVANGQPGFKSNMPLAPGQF", "test": "ALPHA1B/R Eurofins-Panlabs selectivity data (BI)", "conditions": "Rattus norvegicus; Compound concentration 10.0 uM"}, "[14]": {"target": "T2, Alpha-1A adrenergic receptor (Homo sapiens) (UniProt P35348)", "T2 sequence (whole entry)": "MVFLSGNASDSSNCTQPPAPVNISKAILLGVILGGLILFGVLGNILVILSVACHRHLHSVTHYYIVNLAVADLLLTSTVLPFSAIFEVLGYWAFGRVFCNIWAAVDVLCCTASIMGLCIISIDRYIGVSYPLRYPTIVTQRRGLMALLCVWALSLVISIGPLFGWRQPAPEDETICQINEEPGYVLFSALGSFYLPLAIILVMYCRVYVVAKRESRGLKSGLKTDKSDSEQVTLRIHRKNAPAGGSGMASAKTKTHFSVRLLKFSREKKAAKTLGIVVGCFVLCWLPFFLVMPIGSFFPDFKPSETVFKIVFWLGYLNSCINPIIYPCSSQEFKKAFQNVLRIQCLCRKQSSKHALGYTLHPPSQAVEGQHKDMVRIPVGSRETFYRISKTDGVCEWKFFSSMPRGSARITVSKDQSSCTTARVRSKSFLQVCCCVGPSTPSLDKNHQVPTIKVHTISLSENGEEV", "test": "ALPHA1A/R Eurofins-Panlabs selectivity data (BI)", "conditions": "Rattus norvegicus; Compound concentration 10.0 uM"}, "[15]": {"target": "Pyroglutamylated RF-amide peptide receptor (Homo sapiens) (UniProt Q96P65)", "sequence (Q96P65 whole entry)": "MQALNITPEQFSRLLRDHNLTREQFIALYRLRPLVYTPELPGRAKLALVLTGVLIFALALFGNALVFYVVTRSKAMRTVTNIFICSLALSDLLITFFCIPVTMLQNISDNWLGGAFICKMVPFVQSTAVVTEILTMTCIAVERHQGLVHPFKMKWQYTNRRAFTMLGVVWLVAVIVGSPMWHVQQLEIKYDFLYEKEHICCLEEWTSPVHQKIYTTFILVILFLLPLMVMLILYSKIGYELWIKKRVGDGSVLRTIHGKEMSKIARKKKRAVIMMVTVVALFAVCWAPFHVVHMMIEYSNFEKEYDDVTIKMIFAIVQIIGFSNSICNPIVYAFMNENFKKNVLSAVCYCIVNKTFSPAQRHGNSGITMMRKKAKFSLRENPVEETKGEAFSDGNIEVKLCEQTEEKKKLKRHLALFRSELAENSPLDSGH", "test": "GPR103 Eurofins-Panlabs selectivity data (BI)", "conditions": "Compound concentration 10.0 uM"}, "[16]": {"target": "T3, Muscarinic acetylcholine receptor M2 (Homo sapiens) (UniProt P08172)", "T3 sequence (whole entry)": "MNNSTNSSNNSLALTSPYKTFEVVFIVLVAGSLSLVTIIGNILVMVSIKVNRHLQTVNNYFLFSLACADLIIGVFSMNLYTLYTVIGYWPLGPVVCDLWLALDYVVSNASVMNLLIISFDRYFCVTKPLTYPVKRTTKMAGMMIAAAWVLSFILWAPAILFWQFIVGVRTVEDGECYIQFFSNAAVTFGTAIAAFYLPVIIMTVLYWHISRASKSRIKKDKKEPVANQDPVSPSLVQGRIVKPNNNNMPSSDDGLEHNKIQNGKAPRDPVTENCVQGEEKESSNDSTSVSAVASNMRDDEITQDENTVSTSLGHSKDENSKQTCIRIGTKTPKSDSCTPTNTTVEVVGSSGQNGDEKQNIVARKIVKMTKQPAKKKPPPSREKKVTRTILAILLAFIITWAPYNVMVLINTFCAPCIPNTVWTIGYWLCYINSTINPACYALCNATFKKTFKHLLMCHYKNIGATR", "test": "M2/HU Eurofins-Panlabs selectivity data (BI)", "conditions": "Compound concentration 10.0 uM"}, "[17]": {"target": "Gamma-aminobutyric acid receptor subunit alpha-1 (Rattus norvegicus) (UniProt P62813)", "test": "GABAACENTR Eurofins-Panlabs selectivity data (BI)", "conditions": "Compound concentration 10.0 uM"}, "[18]": {"target": "Dual specificity mitogen-activated protein kinase kinase 5 (Homo sapiens) (UniProt Q13163)", "conditions": "Compound concentration 1000.0 nM"}, "[19]": {"target": "Uncharacterized serine/threonine-protein kinase SBK3 (Homo sapiens) (UniProt P0C264)", "conditions": "Compound concentration 1000.0 nM"}, "[20]": {"system": "Tyrosine-protein kinase ABL1 (Homo sapiens), P00519 [Y253F]", "conditions": "Compound concentration 1000.0 nM"}, "[21]": {"target": "Ribosomal protein S6 kinase alpha-5 (Homo sapiens) (UniProt O75582)", "conditions": "Compound concentration 1000.0 nM"}, "[22]": {"target": "Activin receptor type-1B (Homo sapiens) (UniProt P36896)", "conditions": "Compound concentration 1000.0 nM"}, "[23]": {"target": "Alpha-2A adrenergic receptor (Homo sapiens) (UniProt P08913)", "sequence (P08913 whole entry)": "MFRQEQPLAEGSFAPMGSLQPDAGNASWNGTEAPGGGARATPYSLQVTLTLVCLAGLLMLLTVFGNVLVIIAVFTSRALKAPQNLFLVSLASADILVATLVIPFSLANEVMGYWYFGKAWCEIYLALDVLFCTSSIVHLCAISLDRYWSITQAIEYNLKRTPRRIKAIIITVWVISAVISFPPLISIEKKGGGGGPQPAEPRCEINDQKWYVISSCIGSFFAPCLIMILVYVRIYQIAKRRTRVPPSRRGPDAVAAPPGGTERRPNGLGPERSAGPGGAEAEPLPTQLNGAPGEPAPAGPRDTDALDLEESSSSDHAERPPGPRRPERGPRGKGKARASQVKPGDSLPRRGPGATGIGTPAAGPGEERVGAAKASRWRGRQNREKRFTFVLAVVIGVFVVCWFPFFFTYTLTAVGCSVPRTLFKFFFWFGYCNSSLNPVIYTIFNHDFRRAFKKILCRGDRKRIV", "conditions": "Compound concentration 10.0 uM"}, "[24]": {"target": "Peripheral plasma membrane protein CASK (Homo sapiens) (UniProt O14936)", "conditions": "Compound concentration 1000.0 nM"}, "[25]": {"target": "Histamine H4 receptor (Homo sapiens, UniProt Q9H3N8)", "test": "GPCRScan assay: inhibition of H4", "set-up": "radioligand conc. used [nm] 1.0 – 5.0, parental cells HEK T"}}}
{"compound": "CCC(=O)N[C@H]1CC[C@@H](C(=O)N(C)c2ccc(-c3nc4ccccc4o3)cc2)C1", "note": "[BI 99179]", "values": [{"measurement": "residual activity", "setting": "[1]", "value": 96, "unit": "%"}, {"measurement": "inhibition", "setting": "[2]", "value": 3.53, "unit": "%"}, {"measurement": "residual activity", "setting": "[3]", "value": 87, "unit": "%"}, {"measurement": "residual activity", "setting": "[4]", "value": 93, "unit": "%"}, {"measurement": "residual activity", "setting": "[5]", "value": 95, "unit": "%"}, {"measurement": "residual activity", "setting": "[6]", "value": 90, "unit": "%"}, {"measurement": "residual activity", "setting": "[7]", "value": 88, "unit": "%"}, {"measurement": "inhibition", "setting": "[8]", "value": -1.25, "unit": "%"}, {"measurement": "residual activity", "setting": "[9]", "value": 94, "unit": "%"}, {"measurement": "residual activity", "setting": "[10]", "value": 106, "unit": "%"}, {"measurement": "residual activity", "setting": "[11]", "value": 87, "unit": "%"}, {"measurement": "activity at 10 µM", "setting": "[12]", "value": "105% (not active)"}, {"measurement": "residual activity", "setting": "[13]", "value": 96, "unit": "%"}, {"measurement": "residual activity", "setting": "[14]", "value": 83, "unit": "%"}, {"measurement": "residual activity", "setting": "[15]", "value": 101, "unit": "%"}, {"measurement": "residual activity", "setting": "[16]", "value": 90, "unit": "%"}, {"measurement": "residual activity", "setting": "[17]", "value": 92, "unit": "%"}, {"measurement": "residual activity", "setting": "[18]", "value": 16, "unit": "%"}]}
{"compound": "CCC(=O)N[C@@H]1CC[C@H](C(=O)N(C)c2ccc(-c3nc4ccccc4o3)cc2)C1", "note": "[BI 99990]", "values": [{"measurement": "residual activity", "setting": "[19]", "value": 88, "unit": "%"}, {"measurement": "residual activity", "setting": "[20]", "value": 95, "unit": "%"}, {"measurement": "residual activity", "setting": "[21]", "value": 75, "unit": "%"}, {"measurement": "residual activity", "setting": "[22]", "value": 100, "unit": "%"}, {"measurement": "inhibition", "setting": "[23]", "value": 11.2, "unit": "%"}, {"measurement": "residual activity", "setting": "[24]", "value": 83, "unit": "%"}, {"measurement": "Ki", "setting": "[25]", "value": 1.63, "unit": "µM"}]}
